According to ChEMBL document CHEMBL1909046, “DrugMatrix in vitro pharmacology data”:

Columns and labels:
Substance-K receptor = biological target: T1, Substance-K receptor (Homo sapiens, UniProt P21452); format: cell membranes, CHO, Membrane; note: in other assays of this panel Not Active means under 50% inhibition at 10 µM
T1 sequence (P21452 whole entry): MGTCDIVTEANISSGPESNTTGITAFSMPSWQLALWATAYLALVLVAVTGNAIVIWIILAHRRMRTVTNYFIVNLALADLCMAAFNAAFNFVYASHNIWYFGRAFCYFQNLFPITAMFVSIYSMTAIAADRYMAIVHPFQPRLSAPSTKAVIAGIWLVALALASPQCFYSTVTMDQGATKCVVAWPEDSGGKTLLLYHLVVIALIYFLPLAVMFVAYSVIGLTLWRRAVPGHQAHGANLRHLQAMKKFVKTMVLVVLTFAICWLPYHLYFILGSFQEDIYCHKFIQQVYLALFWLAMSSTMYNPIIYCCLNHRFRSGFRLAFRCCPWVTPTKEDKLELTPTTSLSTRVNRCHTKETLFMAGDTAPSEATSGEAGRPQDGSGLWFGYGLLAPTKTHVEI

Endothelin-1 receptor = biological target: T2, Endothelin-1 receptor (Homo sapiens, UniProt P25101); format: cell membranes, Membrane; settings: cho-k1; note: in other assays of this panel Not Active means under 50% inhibition at 10 µM
T2 sequence (P25101 whole entry): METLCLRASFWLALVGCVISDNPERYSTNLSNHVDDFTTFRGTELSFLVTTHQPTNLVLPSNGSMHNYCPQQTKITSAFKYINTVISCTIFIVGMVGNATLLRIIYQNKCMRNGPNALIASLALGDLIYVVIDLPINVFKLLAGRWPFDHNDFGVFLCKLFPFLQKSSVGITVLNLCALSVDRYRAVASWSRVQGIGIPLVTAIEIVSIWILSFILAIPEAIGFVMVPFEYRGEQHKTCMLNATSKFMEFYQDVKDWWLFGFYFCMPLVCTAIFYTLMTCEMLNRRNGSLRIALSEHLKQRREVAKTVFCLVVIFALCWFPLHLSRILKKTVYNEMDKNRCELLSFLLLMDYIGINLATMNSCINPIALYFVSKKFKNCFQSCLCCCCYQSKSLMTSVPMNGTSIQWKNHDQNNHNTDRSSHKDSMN

[1] = biological target: T3, Cysteinyl leukotriene receptor 1 (Homo sapiens, UniProt Q9Y271); format: cell membranes, Membrane; settings: cho-k1; note: in other assays of this panel Not Active means under 50% inhibition at 10 µM
T3 sequence (Q9Y271 whole entry): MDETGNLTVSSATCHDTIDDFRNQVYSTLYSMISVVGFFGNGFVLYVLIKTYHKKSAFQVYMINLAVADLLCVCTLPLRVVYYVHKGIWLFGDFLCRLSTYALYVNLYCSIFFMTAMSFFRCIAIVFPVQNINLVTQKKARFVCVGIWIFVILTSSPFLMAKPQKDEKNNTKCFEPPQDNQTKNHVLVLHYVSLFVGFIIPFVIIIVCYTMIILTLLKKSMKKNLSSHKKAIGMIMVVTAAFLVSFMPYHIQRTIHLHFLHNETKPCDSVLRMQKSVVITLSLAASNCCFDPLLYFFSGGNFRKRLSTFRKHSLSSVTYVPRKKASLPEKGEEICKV

[2] = biological target: T4, Muscarinic acetylcholine receptor M4 (Homo sapiens, UniProt P08173); format: cell membranes, CHO-K1, Membrane; note: in other assays of this panel Not Active means under 50% inhibition at 10 µM
T4 sequence (P08173 whole entry): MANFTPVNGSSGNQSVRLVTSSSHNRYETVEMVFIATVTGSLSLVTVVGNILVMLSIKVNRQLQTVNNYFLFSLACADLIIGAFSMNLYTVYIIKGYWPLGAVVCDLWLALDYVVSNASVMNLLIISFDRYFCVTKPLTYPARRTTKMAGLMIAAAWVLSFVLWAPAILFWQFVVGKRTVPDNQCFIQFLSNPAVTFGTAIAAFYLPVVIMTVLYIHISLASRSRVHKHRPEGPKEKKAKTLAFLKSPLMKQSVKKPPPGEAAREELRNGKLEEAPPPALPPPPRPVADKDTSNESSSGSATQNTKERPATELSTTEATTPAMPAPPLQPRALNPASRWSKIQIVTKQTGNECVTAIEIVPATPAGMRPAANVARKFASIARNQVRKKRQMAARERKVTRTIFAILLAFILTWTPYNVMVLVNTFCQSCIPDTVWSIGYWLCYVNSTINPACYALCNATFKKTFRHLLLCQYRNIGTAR

[3] = biological target: Platelet-activating factor receptor (Homo sapiens, UniProt P25105); format: tissue-based; note: in other assays of this panel Not Active means under 50% inhibition at 10 µM
Sequence of Platelet-activating factor receptor (P25105 whole entry): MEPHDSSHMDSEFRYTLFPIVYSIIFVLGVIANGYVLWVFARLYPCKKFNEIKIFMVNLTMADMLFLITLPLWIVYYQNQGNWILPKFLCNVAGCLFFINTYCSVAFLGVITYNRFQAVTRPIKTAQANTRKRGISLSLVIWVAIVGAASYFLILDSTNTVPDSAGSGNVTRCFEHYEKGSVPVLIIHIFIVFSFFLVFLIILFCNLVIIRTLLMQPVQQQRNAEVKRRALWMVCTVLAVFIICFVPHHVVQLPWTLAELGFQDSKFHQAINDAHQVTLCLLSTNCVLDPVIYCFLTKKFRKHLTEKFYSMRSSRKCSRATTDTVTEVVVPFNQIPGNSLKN

Progesterone receptor = biological target: T5, Progesterone receptor (Bos taurus, UniProt Q690N0); assay: DRUGMATRIX: Progesterone radioligand binding (ligand: [3H] R-5020); format: tissue-based, Uterus; settings: Not Active = under 50% inhibition at 10 µM
T5 sequence (Q690N0 whole entry): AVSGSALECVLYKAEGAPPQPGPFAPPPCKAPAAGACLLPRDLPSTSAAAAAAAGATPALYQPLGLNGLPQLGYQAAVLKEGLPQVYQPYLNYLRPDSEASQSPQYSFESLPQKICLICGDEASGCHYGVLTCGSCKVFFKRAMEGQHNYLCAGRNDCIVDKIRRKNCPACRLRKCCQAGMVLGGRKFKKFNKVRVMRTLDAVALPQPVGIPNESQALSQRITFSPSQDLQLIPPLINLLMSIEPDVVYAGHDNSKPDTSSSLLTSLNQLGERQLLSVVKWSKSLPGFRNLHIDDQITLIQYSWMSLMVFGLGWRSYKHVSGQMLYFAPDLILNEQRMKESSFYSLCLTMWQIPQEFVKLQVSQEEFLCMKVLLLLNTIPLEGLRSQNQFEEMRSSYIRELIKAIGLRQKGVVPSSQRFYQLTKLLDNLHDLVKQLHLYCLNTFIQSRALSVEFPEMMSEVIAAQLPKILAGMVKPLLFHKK

Cytochrome P450 2E1 = Cytochrome P450 2E1 (Homo sapiens, UniProt P05181); settings: bti-tn-5b1-4; note: in other assays of this panel Not Active means under 50% inhibition at 10 µM
Sequence of Cytochrome P450 2E1 (P05181 whole entry): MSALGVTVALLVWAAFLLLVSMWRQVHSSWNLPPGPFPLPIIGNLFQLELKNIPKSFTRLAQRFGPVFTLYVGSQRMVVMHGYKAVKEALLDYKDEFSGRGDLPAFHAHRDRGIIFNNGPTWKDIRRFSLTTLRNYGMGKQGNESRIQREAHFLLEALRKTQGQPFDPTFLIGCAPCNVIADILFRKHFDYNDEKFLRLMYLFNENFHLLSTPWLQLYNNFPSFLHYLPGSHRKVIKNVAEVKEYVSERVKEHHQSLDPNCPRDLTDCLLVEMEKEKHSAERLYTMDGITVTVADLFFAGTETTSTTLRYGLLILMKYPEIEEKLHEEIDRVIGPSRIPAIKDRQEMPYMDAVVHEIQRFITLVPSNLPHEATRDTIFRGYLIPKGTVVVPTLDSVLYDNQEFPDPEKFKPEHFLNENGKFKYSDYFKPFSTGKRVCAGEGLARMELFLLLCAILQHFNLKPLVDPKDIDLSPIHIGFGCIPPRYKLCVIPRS

CCCCC(=O)N(Cc1ccc(-c2ccccc2-c2nnn[nH]2)cc1)[C@H](C(=O)O)C(C)C
Not Active: IC50 (Substance-K receptor; cho) | IC50 (Endothelin-1 receptor) | IC50 [1] | IC50 ([2]; cho-k1) | IC50 [3] | IC50 (Progesterone receptor) | IC50 (Cytochrome P450 2E1) | Ki (Cytochrome P450 2E1)

O=C(O)COc1ccc(C(=O)c2cccs2)c(Cl)c1Cl
Not Active: IC50 (Substance-K receptor; cho) | IC50 (Endothelin-1 receptor) | IC50 [1] | IC50 ([2]; cho-k1) | IC50 [3] | IC50 (Progesterone receptor) | IC50 (Cytochrome P450 2E1) | Ki (Cytochrome P450 2E1)

CN1[C@@H]2CC[C@H]1C[C@@H](OC(c1ccccc1)c1ccccc1)C2 [BENZTROPINE]
Not Active: IC50 (Substance-K receptor; cho) | IC50 (Endothelin-1 receptor) | IC50 [1] | IC50 [3] | IC50 (Progesterone receptor) | IC50 (Cytochrome P450 2E1) | Ki (Cytochrome P450 2E1)

C[C@@](Cc1ccc(O)c(O)c1)(NN)C(=O)O.O [CARBIDOPA]
Not Active: IC50 (Substance-K receptor; cho) | IC50 (Endothelin-1 receptor) | IC50 [1] | IC50 ([2]; cho-k1) | IC50 [3] | IC50 (Progesterone receptor) | IC50 (Cytochrome P450 2E1) | Ki (Cytochrome P450 2E1)

CN1CCN(C2=Nc3cc(Cl)ccc3Nc3ccccc32)CC1 [CLOZAPINE]
Not Active: IC50 (Substance-K receptor; cho) | IC50 (Endothelin-1 receptor) | IC50 [1] | IC50 [3] | IC50 (Progesterone receptor) | IC50 (Cytochrome P450 2E1) | Ki (Cytochrome P450 2E1)

CC(C)NC[C@@H](O)COc1cccc2ccccc12 [DEXPROPRANOLOL]
Not Active: IC50 (Substance-K receptor; cho) | IC50 (Endothelin-1 receptor) | IC50 [1] | IC50 ([2]; cho-k1) | IC50 [3] | IC50 (Progesterone receptor) | IC50 (Cytochrome P450 2E1) | Ki (Cytochrome P450 2E1)

CC(C)NC[C@H](O)COc1cccc2ccccc12 [LEVOPROPRANOLOL]
Not Active: IC50 (Substance-K receptor; cho) | IC50 (Endothelin-1 receptor) | IC50 [1] | IC50 ([2]; cho-k1) | IC50 [3] | IC50 (Progesterone receptor) | IC50 (Cytochrome P450 2E1) | Ki (Cytochrome P450 2E1)

O=C(O)CCCCC1CCSS1 (stereo not drawn) [LIPOIC ACID, ALPHA]
Not Active: IC50 (Substance-K receptor; cho) | IC50 (Endothelin-1 receptor) | IC50 [1] | IC50 ([2]; cho-k1) | IC50 [3] | IC50 (Progesterone receptor) | IC50 (Cytochrome P450 2E1) | Ki (Cytochrome P450 2E1)

CN(C)C(=O)C(CCN1CCC(O)(c2ccc(Cl)cc2)CC1)(c1ccccc1)c1ccccc1 [LOPERAMIDE]
Not Active: IC50 (Substance-K receptor; cho) | IC50 (Endothelin-1 receptor) | IC50 [1] | IC50 ([2]; cho-k1) | IC50 [3] | IC50 (Progesterone receptor) | IC50 (Cytochrome P450 2E1) | Ki (Cytochrome P450 2E1)

Clc1ccc(COC(Cn2ccnc2)c2ccc(Cl)cc2Cl)c(Cl)c1 (configuration not stated) [MICONAZOLE]
446 nM: Ki ([2]; read-out: Ki)
1940 nM: Ki (Progesterone receptor; read-out: Ki)
4840 nM: IC50 (Substance-K receptor; read-out: IC50)
Not Active: IC50 (Endothelin-1 receptor) | IC50 [1] | IC50 [3] | IC50 (Cytochrome P450 2E1) | Ki (Cytochrome P450 2E1)
1610 nM: Ki (Substance-K receptor; read-out: Ki)
3200 nM: IC50 ([2]; read-out: IC50)
14900 nM: IC50 (Progesterone receptor; read-out: IC50)

Oc1ccc2c3c1O[C@H]1[C@@H](O)CC[C@@]4(O)[C@@H](C2)N(CC2CCC2)CC[C@]314 [NALBUPHINE]
Not Active: IC50 (Substance-K receptor; cho) | IC50 (Endothelin-1 receptor) | IC50 [1] | IC50 ([2]; cho-k1) | IC50 [3] | IC50 (Progesterone receptor)
